In patent publication US20240174638A1, “HETEROARYL DERIVATIVES AS APELIN RECEPTOR AGONISTS” (RESEARCH TRIANGLE INSTITUTE, priority 2021, published 2024):

How the values were obtained:
Mouse plasma protein = details: 6 h, 1 μM
Human plasma protein = details: 6 h, 1 μM
in vitro [1] = details: human
in vitro [2] = details: rat, pH 7.4
in vitro [3] = details: mouse, pH 7.4
Rat plasma protein = details: 6 h, 1 μM
[4] = system: BLEO-induced lung fibrosis in male C57BL/6 mice; experiment: Chronic (21-day) bleomycin-induced lung fibrosis model, prophylactic (Px) and therapeutic (Tx) arms; type: in vivo, mouse
[5] = system: Salmonella typhimurium (TA98, TA100, TA1535 and TA1537)
[6] = relative to Vehicle-treated BLEO-instilled controls

% Protein Bound Rep 1 (Mouse plasma protein) [%] | % Protein Bound Rep 2 (Mouse plasma protein) [%] | % Protein Bound Rep 3 (Mouse plasma protein) [%] | Buffer Concentration Rep 1 (Mouse plasma protein) [nM] | Buffer Concentration Rep 2 (Mouse plasma protein) [nM] | Buffer Concentration Rep 3 (Mouse plasma protein) [nM] | Mean % Protein Bound (Mouse plasma protein) [%] | Plasma Concentration Rep 2 (Mouse plasma protein) [µM] | Plasma Concentration Rep 3 (Mouse plasma protein) [µM] | % Protein Bound Rep 1 (Human plasma protein) [%] | % Protein Bound Rep 2 (Human plasma protein) [%] | % Protein Bound Rep 3 (Human plasma protein) [%] | Buffer Concentration Rep 1 (Human plasma protein) [nM] | Buffer Concentration Rep 2 (Human plasma protein) [nM] | Buffer Concentration Rep 3 (Human plasma protein) [nM] | Plasma Concentration Rep 1 (Human plasma protein) [µM] | Plasma Concentration Rep 2 (Human plasma protein) [µM] | Plasma Concentration Rep 3 (Human plasma protein) [µM] | recovery at 6 h, 1 μM (in vitro [1]) [%] | recovery at 6 h, 1 μM (in vitro [2]) [%] | SMILES | other results
18.36 | 23.23 | 20.05 | 274.4 | 258.1 | 268.1 | 20.50 | 0.3362 | 0.3353 | −12.84 | −22.81 | −2.59 | 544.3 | 539.8 | 494.8 | 0.4823 | 0.4396 | 0.4823 | 99.4 | 105 | CCCC(=O)Nc1ccc(OCC(O)CNC(C)C)c(C(C)=O)c1 (stereo not drawn) [Acebutolol] | Plasma Concentration Rep 1 (Mouse plasma protein): 0.336 µM; recovery at 6 h, 1 μM (in vitro [3]): 60.3%; % Protein Bound Rep 1 (Rat plasma protein): −11.35%; % Protein Bound Rep 2 (Rat plasma protein): −26.18%; % Protein Bound Rep 3 (Rat plasma protein): −33.75%; Buffer Concentration Rep 1 (Rat plasma protein): 552.8 nM; Buffer Concentration Rep 2 (Rat plasma protein): 571.3 nM; Buffer Concentration Rep 3 (Rat plasma protein): 639.1 nM; Plasma Concentration Rep 1 (Rat plasma protein): 0.4556 µM; Plasma Concentration Rep 2 (Rat plasma protein): 0.4528 µM; Plasma Concentration Rep 3 (Rat plasma protein): 0.4778 µM
– | – | – | – | – | – | – | – | – | – | – | – | – | – | – | – | – | – | – | – | Cc1ccc(=O)n(-c2ccccc2)c1 [PIRF, Pirfenidone, reference compound] | 21-day survival rate ([4]; BLEO-instilled mice, Px PIRF 200 mg/kg/day p.o. BID): 94%; ΔBW ([4]; D0-D21, relative to Vehicle-treated BLEO-instilled controls): Neither EXAMPLE 22 nor PIRF affected; composite Collagen Volume Fraction (CVF) ([4]; Px PIRF 200 mg/kg/day, Vehicle 2.63±0.24%): 1.87±0.19%; composite Tissue Collagen Fraction (TCF) ([4]; Px PIRF 200 mg/kg/day, Vehicle 5.58±0.34%): 4.43±0.34%; LW indexed to tibia length (LW:TL) [4, 6]: Neither EXAMPLE 22 nor PIRF affected; endpoint lung OH-P content [4, 6]: Neither EXAMPLE 22 nor PIRF affected; endpoint lung weight (LW) [4, 6]: Neither EXAMPLE 22 nor PIRF affected; final BW [4, 6]: Neither EXAMPLE 22 nor PIRF affected; serial BW [4, 6]: Neither EXAMPLE 22 nor PIRF affected
89.13 | 90.27 | 91.02 | 91.8 | 89.5 | 82.3 | 90.10 | 0.9198 | 0.917 | 97.59 | 98.26 | 98.01 | 21.6 | 17.3 | 18.4 | 0.8975 | 0.9932 | 0.9262 | 95.4 | 81.4 | CC(=O)CC(c1ccccc1)c1c(O)c2ccccc2oc1=O (stereo not drawn) [Warfarin] | Mean % Protein Bound (Human plasma protein): 97.96%; recovery at 6 h, 1 μM (in vitro [3]): 98.2%; % Protein Bound Rep 1 (Rat plasma protein): 99.46%; % Protein Bound Rep 2 (Rat plasma protein): 99.25%; % Protein Bound Rep 3 (Rat plasma protein): 97.82%; Buffer Concentration Rep 1 (Rat plasma protein): 4.4 nM; Buffer Concentration Rep 2 (Rat plasma protein): 5.9 nM; Buffer Concentration Rep 3 (Rat plasma protein): 17.7 nM; Mean % Protein Bound (Rat plasma protein): 98.80%
– | – | – | – | – | – | – | – | – | – | – | – | – | – | – | – | – | – | – | – | COc1ccc2nc3cc(Cl)ccc3c(NCCCNCCCl)c2c1 [ICR-191] | Cytotoxicity Code [5]: N; Mean Revertant Colony Counts ([5]; Salmonella typhimurium): 66.00; Ratio ([5]; Salmonella typhimurium): 28.33
